Reference: patent US5972932A, “Anesthetic method and composition” (Eli Lilly and Company, priority 1997, dated 1999)

Experiments:
[1] = test system: 5-HT2C (formorly knowm as 5-HT1C receptor) receptor; assay: pharmacological studies, 5-HT2C receptor activity; settings: formerly 5-HT1C receptor
[2] = test system: muscarinic cholinergic receptor; assay: pharmacological studies, muscarinic cholinergic receptor activity

Cc1cc2c(s1)Nc1ccccc1N=C2N1CCN(C)CC1 [olanzapine, 2-methyl-4-(4-methyl-1-piperazinyl)-10H-thieno[2,3-b][1,5]benzodiazepine]
activity at the 5-HT2C receptor [1]: active
muscarinic cholinergic receptor activity [2]: has muscarinic cholinergic receptor activity
